The values that follow come from patent US12239686B2, “Immune checkpoint inhibitor combinations” (LYTIX BIOPHARMA AS, priority 2014, dated 2025).

One may read the IC50 as the concentration that inhibits the measured activity by half.

Molecules are shown by their SMILES. Non-standard residues stand in square brackets, D forms with d. Residues, ends and D or L forms follow the SMILES beside them. Dip = N[C@H](C(=O)O)C(c1ccccc1)c1ccccc1

The test has as its system K5627/Gleevec. Type of test: cell-based, human. To be noted: resistant. The procedure:
Tumor cells were grown as adherent monolayers or as suspensions at 37° C. in a humidified atmosphere (5% CO2, 95% air). The culture medium was RPMI 1640 containing 2 mM L-glutamine (Lonza, Belgium) and supplemented with 10% fetal bovine serum (FBS, Lonza). For experimental use, the adherent cells were detached from the culture flask by a 5-minute treatment with trypsin-versene (Lonza), diluted in Hanks' medium without calcium or magnesium (Lonza) and neutralized by addition of complete culture medium. Cells were counted in a hemocytometer and their viability was assessed by 0.25% trypan blue exclusion. […]
Three independent experiments were performed, each concentration being tested in quadruplicate. […] At the end of treatments, the cytotoxic activity was evaluated by a MTS assay (see § 3.3). […]
At the end of the cells treatment, 40 μl of a 0.22 μm filtered freshly combined solution of MTS (20 ml at 2 mg/ml, Ref G1111, Batch 235897, Exp 03/2009, Promega, Charbonnières, France) and PMS (1 ml at 0.92 mg/ml, Ref P9625, Batch 065K0961, Sigma) in Dulbecco's Phosphate Buffered Saline (DPBS, Ref 17-513Q, Batch 6MB0152, Cambrex), were added in each well. […] Absorbency (OD) were measured at 490 nm in each well using VICTOR^3TM 1420 multilabeled counter (Wallac, PerkinElmer, Courtaboeuf, France). […]

Compound `NCCCC[C@H](NC(=O)[C@@H](NC(=O)[C@H](Cc1c[nH]c2ccccc12)NC(=O)[C@H](CCCCN)NC(=O)[C@H](CCCCN)NC(=O)[C@H](Cc1c[nH]c2ccccc12)NC(=O)[C@H](Cc1c[nH]c2ccccc12)NC(=O)[C@H](CCCCN)NC(=O)[C@@H](N)CCCCN)C(c1ccccc1)c1ccccc1)C(N)=O` [LTX-315, K-K-W-W-K-K-W-Dip-K-NH2] (H-KKWWKKW[Dip]K-NH2) registered an IC50 of 2.98 µM.
